Test results from patent publication US20160200716A1, “COBICISTAT DICHLOHYDRATE SALT” (ASSIA CHEMICAL INDUSTRIES LTD., priority 2012, published 2016).
Structures can show the parent of a compound that is named as a salt.

Key:
[1] = Measurements of bulk density of mono- and dihydrochloride salts of Cobicistat; format: physicochemical; details: for volume filled by the salt in a glass cylinder (bulk density): about 0.30 g freely poured into glass cylinder without compaction, FIG. 12
Text: Measurements of Bulk Density of Mono-and Dihydrochloride Salts of Cobicistat:
Cobicistat monohydrochloride and dihydrochloride, prepared according to examples 7 and 5 respectively, (about 0.30 g) were freely poured into two glass cylinders without compaction. While 0.30 g of Cobicistat monohydrochloride filled a volume of almost 5m1, 0.30 g of Cobicistat dihydrochloride filled a volume of less than 2m1.

[2] = Powder flowability / handling properties of Cobicistat hydrochloride salts; format: physicochemical; details: particle-shaped morphology, FIG. 9

volume filled by the salt in a glass cylinder (bulk density) [1]	bulk density compared with the monohydrochloride salt ([1]; as demonstrated in FIG. 12)	flowability of the powder material [2]	SMILES
less than 2 m1	substantially higher	highly flowable	CC(C)c1nc(CN(C)C(=O)N[C@@H](CCN2CCOCC2)C(=O)N[C@H](CC[C@H](Cc2ccccc2)NC(=O)OCc2cncs2)Cc2ccccc2)cs1 [Cobicistat dihydrochloride]
~5 m1			CC(C)c1nc(CN(C)C(=O)N[C@@H](CCN2CCOCC2)C(=O)N[C@H](CC[C@H](Cc2ccccc2)NC(=O)OCc2cncs2)Cc2ccccc2)cs1 [Cobicistat monohydrochloride, reference compound]
